The subject of data set [1] is Cancer cell lines (161 different lines). As to the kind of experiment: Proliferation assay, 161 cancer cell lines, 72 hours. It is filed as cell-based. How it is done:
Cells were treated for 72 hours instead of 96 hours. Thus, cell numbers from individual cell line were optimized so that cells were ˜70-80% confluent in 72 hours when treated with vehicle only. […] A number of other cancer cell lines from bladder, ovarian, myeloma, prostrate, and renal cancers are also sensitive to K-101A. Most cell lines from liver and lung (SCLC) are resistant to K101A.

For data set [2], the system named is PKCμ and PKCδ in Namalwa, Mino, Raji, Daudi. As to the kind of experiment: Activation of PKC isoforms in four lymphoma cell lines, Western blot. The class given is cell-based. How it is done: Western blot analysis was performed as described in Example 2 and 4.
In general terms: In western blotting, separated proteins are transferred to a membrane and probed.

A further data set deals with Wnt signaling pathway. Nature of the data set: TOPFlash / TK-RL Dual Luciferase assay (Wnt signaling), A549. The class given is cell-based. Particulars: 24 hours, K101A 1, 3, 10 μM, K102 0.03, 0.1, 0.3 μM. How it is done: A549 cells (20K cells/well) were seeded in 96-well plates on Day 1. Cells were transfected with a mixture of TOPFlash firefly luciferase reporter plasmid M50 (300 ng/well) (Adagene) and an internal control plasmid pRL-TK-Renilla luciferase (20 ng/well) (Promega) using FuGene transfection reagent (plasmid:FuGene=1:4) (Promega) on Day 2. […] Luciferase activities in treated cells were measured using Dual-Glo Luciferase Kit according to manufacturer's instructions (Promega) on Envision (Perkin Elmer). TOPFlash has been used as a reporter for activation of Wnt signaling pathway. […] It has been reported that PKC activators, via suppression of K-Ras stemness pathway, can block canonical Wnt signaling in pancreatic cancer cells. The data here indicate that PKC activator can also block canonical Wnt signaling in lung cancer cells.

For data set [3] the following is noted: literature reports; cited from earlier work.
The next data set concerns phospho-PKC (pan). As to the kind of experiment: Western blot of phospho-PKC (pan) in A549 cells. The class given is cell-based. How it is done: Cancer cells (2-8 million cells) were seeded in 10 cm dishes and grown overnight. For A549 lung cancer cell line, about 3 million cells were seeded. Cells were then treated with different drugs at indicated concentrations (see Table 8) for a period of time up to 48 hours. Cells were lysed in 0.3-0.5 mL of RIPA buffer (Sigma) supplemented with protease inhibitors (Roche) and phosphatase inhibitors (Sigma). Lysates were assayed for protein concentration using BCA kit (Pierce). Normalized amount of lysates (20-30 μg protein/lane) were run on 4-12% NuPage gel (Life Technologies) and the proteins were transferred to the PVDF or nitrocellulose membrane using iBlot® Transfer Stack (Life Technologies). The membranes were probed with primary antibodies shown in Table 8 at 4° C. overnight after blocking with 1×TBST containing 5% non-fat milk. Antibodies from other vendors could also be used in Western blot analysis. After washing 5 times with 1×TBS containing 0.1% Tween20, the membranes were probed with 2nd antibodies Anti-mouse IgG Dylight 800 conjugate or Anti-rabbit IgG DyLight 680 conjugate (1:10000; Cell signaling or similar IR 2nd antibodies from different vendors) at room temperature for one hour. After washing 5 times, the membranes were scanned using Odyssey® Imaging System (Licor Biosciences).

Data set [4] relates to K-Ras mutant pancreatic, lung, and colon cancer cell lines, leukemia cell lines. Nature of the data set: Proliferation assays, panel of cancer cell lines (summary statements). The class given is cell-based. How it is done: Briefly, cells at a density of 1,000-10,000 cells/well were seeded in 96-well plates and incubated at 37′C for 24 hours. A series of 9 different concentrations of compound stocks (500×) were created by 3-fold serial dilution in DMSO. These compounds were further diluted in culture media and then added to cells so that the final DMSO concentration was 0.2%. After 96 hours of incubation, 50 μL of CellTiter Glo reagent (Promega) was added to each well and luminescence was measured after 10 minutes using EnVision (PerkinElmer). […] The dose range for most compounds was 4.6 nM-30 μM. The dose ranges for some compounds were adjusted downward to 0.46 nM-3 μM or 0.08 nM-0.5 μM or 0.03 nM-0.2 μM. Luminescence from cells treated with […] alone was set as Max and % of inhibition was calculated as follows: Inhibition %=(Max-Sample value)/Max*100. Data was analyzed using XL-fit software (ID Business Solutions Ltd.) and EC50, relative EC50, and % of top inhibition were calculated. The results are shown in Tables 3-6 for pancreatic cancer, lung cancer, colon/gastric cancer, and leukemia cell lines.

The next data set deals with PKCμ. Nature of the data set: PKCμ phosphorylation in A549, HCT116, SW620, Panc02.13 cells, Western blot. It is filed as cell-based. Particulars: 30 minutes. The method, then: Non-cancerous lung fibroblast cell line HFL-1 or cancer cells (2-8 million cells) were seeded in 10 cm dishes and grown overnight so that the cells were about 40-80% confluent before treatment with the compound. Cells were then treated with different drugs at indicated concentrations (see descriptions for FIG. 11 and FIG. 12) for 30 minutes. Cell lysate preparation, protein quantitation, SDS-PAGE, and Western blotting procedures are described in Example 2 and 4. Primary antibodies used in this Example and later Examples of this application are shown in Table A. Secondary antibodies Anti-mouse IgG HRP conjugate or Anti-rabbit IgG HRP conjugate (dilutions from 1:2000-1:10000) were used. Western blot membranes were scanned using Imagequant LAS4000 (GE).

This is an account of results in patent US12502369B2, “Methods of cancer treatment” (K-GEN, INC., priority 2015, dated 2025).

The structures appear in SMILES notation. “Also recorded” adds a separate entry of the source.

For the compound `CC(=O)O[C@@]12C[C@@H](C)[C@]3(O)C4C=C(C)C(=O)[C@@]4(O)CC(CO)=C[C@H]3[C@@H]1C2(C)C` (some centres unmarked) [Compound K-101A, Prostratin], the “sensitivity of most cell lines from liver and lung (SCLC)” value in data set [1] was “resistant”. For the same compound, in data set [1] (161 cell lines), the “cell lines showing top inhibition above 30%” value is recorded as “Roughly 50 % of the cell lines” and the “cell lines showing top inhibition above 50%” value is ~25 % of the cell lines. Besides, in data set [1] (breast cancer cell lines), the “lines having a top inhibition above 30%” value was 9 out of 18. Besides, the “lines having a top inhibition above 30%” value in data set [1] (leukemia cell lines) was 10 out of 11. In data set [2], the “phosphorylation of PKCμ at Ser744/748 and Ser916 and PKCδ at Thr505” value is “induced in all cell lines”; the “proportion of phosphorylated PKCμ at Ser916/total PKCμ” value is “much greater in two sensitive cell lines”. Also, the “maximal inhibition of TOPFlash activity” value with Wnt signaling pathway is reported as “about 60%”. In data set [3], the tumor promotion entry is listed as “non-tumor-promoting”. Besides, the “phospho-PKC (pan) level” value in the data set with phospho-PKC (pan) (0.5 uM of K-101A) was “without affecting”. Further, in the data set with phospho-PKC (pan) (48 hours, K-103, K-102 at 0.5 μM, K-101A at 2.5 μM), the “phospho-PKC (pan) levels” value is given as “reduction”.

On to `C/C=C(/C)C(=O)O[C@H]1C(C)=C[C@]23C(=O)[C@@H](C=C(CO)[C@@H](O)[C@]12O)[C@H]1[C@@H](C[C@H]3C)C1(C)C` [Compound K-102, Ingenol-3-angelate, reference compound], for which the “potency in proliferation inhibition relative to prostratin” value in data set [4] was “more potent in proliferation inhibition”. For the same compound, in the data set on PKCμ, the “PKCμ activation, phosphorylation at Ser744/748” value is “observed for all four cancer cell lines”; the “PKCμ activation, phosphorylation at Ser916” value was “observed primarily in cell lines A549 and Pan 02,13; also recorded: observed primarily in cell lines A549 and Panc02.13”.
